The values below come from US6319929A, “Suksdorfin analogs, compositions thereof, and methods for making and using thereof” (priority 1998, dated 2001).

Read-outs that look alike come from different tables or passages of the source.

As usually defined, the EC50 is the concentration giving half of the maximal effect. As usually defined, the IC50 is the point on the concentration scale where inhibition reaches its midpoint.

Data set [1] concerns HIV-1 replication in H9 cells. The data set can be described thus: HIV-1 replication inhibition in acutely infected H9 lymphocytes (p24 antigen ELISA). It is filed as cell-based, HIV-1 (IIIB strain). The conditions noted are these: for IC50: Human immunodeficiency virus 1, read-out: IC50 (μM)^b. The protocol:
(§1) HIV inhibition assay. The HIV inhibition was measured as described herein. Briefly, H9 cells, a T cell line, (3.5×10^6 cells/ml) were incubated in the presence or absence of HIV-1 (IIIB strain, 0.01-0.1 TCID50 /cell) for 1 hour at 37° C. Cells were washed thoroughly and resuspended at a final concentration of 2×10^5 cells/ml in the presence or absence of compound. After incubation for 3-4 days at 37° C., the cell density of uninfected cultures was determined by cell count to assess toxicity of the drug. An aliquot of each cell-free supernatant was assayed by p24 antigen ELISA to quantitate the amount of HIV-1 present in the infected cultures. Test compounds were considered to be active at a particular concentration if p24 antigen levels were less than 70% of infected, untreated controls and were nontoxic to uninfected H9 cells.
(§2) HIV Growth Inhibition Assay: The T cell line, H9, and the promonocytic cell line, U937, were maintained separately in continuous culture with complete medium (RPMI 1640 and […] fetal calf serum (FCS) at 5% CO2 and 37° C. Cell lines were used in experiments only when in log phase of growth; whereas, uninfected peripheral blood mononuclear cells (PBMCs) were first stimulated with PHA (1 μg/ml) for 3 days. All cell targets were incubated with HIV-1 (IIIB isolate, TCID50 10 ^4 IU/mi, at a multiplicity of infection of 0.1-0.01 IU/cell) for 1 hour at 37° C. and 5% CO2. The cell lines and PBMCs were washed thoroughly to remove unabsorbed virions and resuspended at 4×10^5 cells/ml in complete medium or complete medium with 10% v/v interleukin […] IL-2, respectively. Aliquots ( ml) were placed in wells of 24-well culture plates containing an equal volume of test compound (diluted in the appropriate culture medium). After incubation for 4 days at 37° C., cell density of uninfected cultures was determined by counting cells in a Coulter counter to assess toxicity of the test compound. A p24 antigen ELISA assay was used to determine the level of virus released in the medium of the HIV-infected cultures. The p24 antigen assay uses a HIV-1 anti-p24 specific monoclonal antibody as the capture antibody coated-on 96-well plates. Following a sample incubation period, rabbit serum containing antibodies for HIV-1 p24 is used to tag any p24 "captured" onto the microtiter well surface. Peroxidase conjugated goat anti-rabbit serum is then used to tag HIV-1 p24 specific rabbit antibodies which have complexed with captured p24. […] The cut-off for the p24 ELISA assay is 12. pg/ml. P24 in the culture medium was quantitated against a standard curve containing known amounts of p24. The effective (EC50) and inhibitory (IC50) concentrations (for anti-HIV activity and cytotoxicity, respectively) were determined graphically. Both the EC50 and IC50 values were calculated by plotting drug concentration versus percent inhibition, and then identifying a 50% inhibition value from the graph.
(In general: An ELISA detects its analyte on a solid surface through an enzyme-linked reagent.)

The test system of data set [2] is uninfected H9 cells. The experiment in a line: Toxicity to uninfected H9 cells (cell growth). The conditions noted are these: Homo sapiens. It counts as cell-based. The protocol:
as §1, §2

For data set [3], the system named is chronically HIV-1 infected ACH-2 cells. The experiment in a line: Virus expression from chronically HIV-1 infected T cell line ACH-2 (p24 antigen ELISA). It is filed as cell-based. The conditions noted are these: ACH-2 cells; 4320 min. The protocol:
Effects of suksdorfin analogs on Chronically HIV-1 infected cells. The experimental design is as follows: The phorbol ester, PMA (10^-8 M) and various concentrations of suksdorfin were either added or not added to both the chronically HIV-1 infected T cell line (ACH-2) and to the chronically HIV-1 infected monocytic cell line (U1). Cell-free supernatant was collected 72 hours post culture for p24 antigen ELISA.
Results (Table 11) from adding compound 16 to the chronically HIV-infected T cell line, ACH-2, according to methods in above examples. ACH-2 are a chronically HIV-1 infected T cell line. It was derived from A3.01 cells which is a subclone of the CEM cell line. The data below indicates the following points:
Chronically HIV-1 infected cell lines. HIV-1 chronically infected T cell line, ACH-2^12, and HIV-1 chronically infected promonocytic cell line, U1 13, were continuously maintained in RPMI 1640 with 10% fetal calf serum (FCS). For experiments, the cell lines were only used in the […] of growth. Cells (0.5×10^6 cells/well) and either various concentrations of suksdorfin or medium alone were added to 24-well plates in the presence or absence of PMA (10^-8 M). After 72 hours at 37° C. and 5% CO2, an aliquot of the cell-free supernatants were collected and analyzed for p24 antigen by ELISA (see below for details of p24 antigen ELISA).

The mark [4] stands for this setting: Human immunodeficiency virus 1, H9, Table 3, H9 lymphocytes, read-out: EC50.
[5] abbreviates: H9, Table 3, H9 lymphocytes, read-out: IC50.
The mark [6] stands for this setting: Human immunodeficiency virus 1, H9, acutely infected H9 cells, concentration which inhibits viral replication by 50%, Inactive = No suppression of HIV-1 replication in H9 cells, read-out: EC50.
The mark [7] stands for this setting: Table 14, concentration which inhibits viral replication by 50%, Inactive = No suppression of HIV-1 replication in H9 cells.
[8] abbreviates: IC50 for cell growth inhibition divided by EC50 for HIV inhibition, H9.
Where [9] appears, read: H9, Table 14, concentration which inhibits uninfected cell growth by 50%, read-out: IC50 (μM)^a.
Where [10] appears, read: H9, concentration which inhibits uninfected cell growth by 50%, read-out: IC50.
The mark [11] stands for this setting: Human immunodeficiency virus 1, H9, Table 17, acutely infected H9 lymphocytes, read-out: EC50.
Setting [12] is: H9, Table 17, uninfected H9 cell growth, read-out: IC50.
The mark [13] stands for this setting: acutely infected H9 cells, concentration which inhibits viral replication by 50%, Inactive = No suppression of HIV-1 replication in H9 cells.

On to `CC(=O)OC1Cc2c(ccc3ccc(=O)oc23)OC1(C)C` (racemic) [Compound 25], for which the EC50 in data set [1] (setting [4]) is greater than 69 µM.

Turning to `CC(C)CC(=O)OC1Cc2c(ccc3ccc(=O)oc23)OC1(C)C` (racemic) [Compound 26], the EC50 in data set [1] (setting [4]) was greater than 12 µM.

For `CC(=O)O[C@@H]1c2c(ccc3ccc(=O)oc23)OC(C)(C)[C@@H]1OC(C)=O` (relative stereo) [Compound 12], the EC50 in data set [1] (setting [4]) is greater than 289 µM.

Take `CC(C)CC(=O)O[C@@H]1c2c(ccc3ccc(=O)oc23)OC(C)(C)[C@@H]1OC(=O)CC(C)C` (relative stereo) [Compound 13]: the EC50 in data set [1] (Human immunodeficiency virus 1, H9, Table 3, H9 lymphocytes) is greater than 232 µM.

Turning to `CC(=O)O[C@@H]1[C@@H](OC(=O)c2cccc(Cl)c2)c2c(ccc3ccc(=O)oc23)OC1(C)C` (relative stereo) [Compound 27], the EC50 in data set [1] (setting [4]) was greater than 45 µM.

Consider `CC(C)CC(=O)O[C@@H]1[C@@H](OC(=O)c2cccc(Cl)c2)c2c(ccc3ccc(=O)oc23)OC1(C)C` (relative stereo) [Compound 28], for which, in data set [1] (setting [4]), the EC50 was determined as 8.3 µM. In addition, the “Therapeutic Index” value in data set [1] (Table 3, H9 lymphocytes) is 1.2. The IC50 in data set [2] (setting [5]) worked out at 10 µM.

Regarding `CO[C@@H]1[C@@H](OC(=O)c2cccc(Cl)c2)c2c(ccc3ccc(=O)oc23)OC1(C)C` (relative stereo) [Compound 29], in data set [1] (setting [4]), the EC50 worked out at 241 µM. In data set [1] (Table 3, H9 lymphocytes), the “Therapeutic Index” value is reported as greater than 0.2. In addition, the IC50 in data set [2] (setting [5]) was greater than 48 µM.

As to `CC1(C)Oc2ccc3ccc(=O)oc3c2[C@H](OC(=O)c2cccc(Cl)c2)[C@H]1OCc1ccccc1` (relative stereo) [Compound 30], in data set [1] (setting [4]), the EC50 amounted to 6.1 µM.

With `CCC(C)C(=O)OC1C(O)c2c(ccc3ccc(=O)oc23)OC1(C)C` (centres unmarked) [8 and 9], the EC50 in data set [1] (setting [4]) is greater than 57.8 µM.

`CCC(C)C(=O)OC1c2c(ccc3ccc(=O)oc23)OC(C)(C)C1O` (centres unmarked) [10 and 11]: the EC50 in data set [1] (setting [4]) is greater than 57.8 µM.

Turning to `CCC(C)C(=O)OC1c2c(ccc3ccc(=O)oc23)OC(C)(C)C1OC(=O)C(C)CC` (centres unmarked) [14 and 15], the EC50 in data set [1] (setting [4]) turned out to be 7 µM.

Regarding `COc1c2ccoc2cc2oc(=O)ccc12` [Bergapten, bergapten, reference compound], in data set [1] (setting [6]), the EC50 was determined as 30.1 µM. Besides, the figures for the IC50 in data set [1] (setting [7]), in data set [2] (setting [9]) and in data set [2] (setting [10]) were 30.1 µM, greater than 92.6 µM and greater than 92.6 µM, respectively. Besides, the “Therapeutic Index” value in data set [1] (setting [8]) and in data set [1] (Table 14) was greater than 3.1 throughout.

`C/C=C(/C)C(=O)OC(C)(C)[C@@H]1Cc2c(ccc3ccc(=O)oc23)O1` [Columbianadin, columbianadin, reference compound]: the EC50 in data set [1] (setting [6]) amounted to 4.6 µM. In addition, the IC50 in data set [1] (setting [7]) was 4.6 µM; in data set [2] (setting [9]), greater than 6.1 µM; in data set [2] (setting [10]), greater than 6.1 µM. Further, the “Therapeutic Index” value in data set [1] (setting [8]) and in data set [1] (Table 14) was greater than 1.3 each time.

Turning to `CC1(C)Oc2ccc3ccc(=O)oc3c2[C@H](OC(=O)[C@@]23CC[C@@](C)(C(=O)O2)C3(C)C)[C@@H]1OC(=O)[C@@]12CC[C@@](C)(C(=O)O1)C2(C)C` [Compound 17, 3',4'-Di-O-(-)-Camphanoyl-(-)-cis-Khellactone], the EC50 in data set [1] (setting [4]) and in data set [1] (setting [11]) was 51 µM throughout. In addition, the “Therapeutic Index” value is on record as greater than 1.3 in data set [1] (setting [8]); greater than 33.3 in data set [1] (Table 3, H9 lymphocytes); greater than 33.3 in data set [1] (Table 17, H9). For the same molecule, the “anti-HIV activity in H9 cells (in words)” value was “much less activity than that of compound 16” in data set [1] (acutely infected H9 cells) and “much less anti-HIV activity than 2” in data set [1] (acutely infected H9 cells, listed as 3). Further, the IC50 in data set [2] (setting [5]) and in data set [2] (setting [12]) was 1700 µM in each case.

For `CC1(C)Oc2ccc3ccc(=O)oc3c2[C@H](OC(=O)[C@@]23CC[C@@](C)(C(=O)O2)C3(C)C)[C@H]1OC(=O)[C@@]12CC[C@@](C)(C(=O)O1)C2(C)C` [Compound 44, 31'4'-Di-O-(-)-Camphanoyl-(-)-trans-Khellactone], the “Therapeutic Index” value in data set [1] (Table 3, H9 lymphocytes) is given as greater than 1; in data set [1] (Table 14), 1.3; in data set [1] (Table 17, H9) it was greater than 1. Further, the “anti-HIV activity in H9 cells (in words)” value in data set [1] (acutely infected H9 cells) was “much less activity than that of compound 16”; in data set [1] (acutely infected H9 cells, listed as 4), “much less anti-HIV activity than 2”.

Consider `CC1(C)Oc2ccc3ccc(=O)oc3c2[C@@H](OC(=O)[C@@]23CC[C@@](C)(C(=O)O2)C3(C)C)[C@@H]1OC(=O)[C@@]12CC[C@@](C)(C(=O)O1)C2(C)C` [Compound 45, 3', 4'-Di-O-(-)-Camphanoyl-(+)-trans-Khellactone], for which the EC50 in data set [1] (setting [4]) and in data set [1] (setting [11]) was 32 µM each time. Besides, the “Therapeutic Index” value in data set [1] (Table 3, H9 lymphocytes) is greater than 1; in data set [1] (Table 17, H9), greater than 1. The “anti-HIV activity in H9 cells (in words)” value in data set [1] (acutely infected H9 cells) is reported as “much less activity than that of compound 16”; in data set [1] (acutely infected H9 cells, listed as 5) it was “much less anti-HIV activity than 2”. The IC50 in data set [2] (setting [5]) is less than 32 µM; in data set [2] (setting [12]), greater than 32 µM.

Turning to `COc1cc2cc(Oc3ccc4ccc(=O)oc4c3)c(=O)oc2cc1O` [Daphnoretin, daphnoretin, reference compound], the “IC50 (μM)^b” value in data set [1] (setting [7]) was “Inactive”. Moreover, in data set [1] (acutely infected H9 cells), the “anti-HIV activity in H9 cells (in words)” value was “no activity”. The EC50 result in data set [1] (setting [13]) is listed as “Inactive”.

As for `CC(C)(O)[C@H]1Cc2cc3ccc(=O)oc3cc2O1` [Nodakenetin, nodakenetin, reference compound], the “IC50 (μM)^b” value in data set [1] (setting [7]) was “Inactive”. In data set [1] (setting [13]), the EC50 result is “Inactive”.

Take `CC(C)(O[C@@H]1O[C@H](CO)[C@@H](O)[C@H](O)[C@H]1O)[C@H]1Cc2cc3ccc(=O)oc3cc2O1` [Nodakenin, nodakenin, reference compound]: in data set [1] (setting [7]), the “IC50 (μM)^b” value was “Inactive”. Further, in data set [1] (setting [13]), the EC50 result is “Inactive”.

On to `CCCCCCCCCCCCCC(=O)O[C@@H]1[C@@H](C)[C@@]2(O)[C@@H](C=C(CO)C[C@]3(O)C(=O)C(C)=C[C@@H]23)[C@@H]2C(C)(C)[C@]12OC(C)=O` [PMA, phorbol 12-myristate 13-acetate, reference compound], for which, in data set [3], the “induction of virus replication compared to medium alone” value was determined as 27 fold.

In the case of acetylnodakenin [reference compound], in data set [1] (setting [7]), the “IC50 (μM)^b” value is reported as “Inactive”. Besides, in data set [1] (setting [13]), the EC50 result is on record as “Inactive”.
